These are literature values, as cited in publication PMC10703426, “New characterization of dihydroergotamine receptor pharmacology in the context of migraine: utilization of a β-arrestin recruitment assay” (Frontiers in Neurology, 2023).

The test system of the series is 5-HT1D. Details: method as in doi:10.1186/1129-2377-14-S1-P75. The note with it: cited from earlier work.

Consider `CNS(=O)(=O)Cc1ccc2[nH]cc(CCN(C)C)c2c1` [sumatriptan succinate], for which the dissociation half-life was 5.4 min.
